In brackets after ≈: the same amount, converted by molar mass.

One data set concerns zebrafish larvae. The experiment in a line: Zebrafish motor activity (distance traveled, speed). It counts as in vivo, Danio rerio. How it is done:
After 96 h, the larvae were distributed individually in 96-well plates, with each well containing 100 µL of embryo medium and 100 µL of test solution (total volume = 200 µL). The behaviors of the larvae were recorded individually for 10 min (at 28 °C) and were analyzed using EthovisionXT software (Noldus). The parameters considered were speed (mm/s) and distance covered.

Data set [1] is described as follows: AA oxidation under aquarium conditions. The data set is classed as physicochemical. How it is done: (§1) The oxidation profiles of AA, alone and encapsulated in the CS and PCL nanoparticles, were evaluated using the method described previously. A stock solution of AA was prepared by dissolving 50 mg of AA in 250 mL of stabilizing solution (EDTA). The absorbance of this solution was measured at 265 nm, with the stabilizing solution used as the background. Separately, a solution of Oxone (potassium peroxymonosulfate, Sigma-Aldrich) was prepared in 50 mL of EDTA solution. An aliquot of AA solution was mixed with 3 mL of Oxone solution and completed to 25 mL with the stabilizing solution, resulting in a solution with 10 μg mL^−1 of AA. The same procedure was performed for the CS and PCL nanoparticles loaded with AA. The absorbance value of the solution containing only AA, minus the absorbance value of the solution containing AA and Oxone, was proportional to the concentration of AA present in the sample. For oxidation studies under aquarium conditions, 9 aquaria were used (3 per treatment), each containing a final volume of 3 L and fitted with an aeration pump. The parameters set for the experiment were 28 °C, pH 7 ± 0.5, and 25 µg mL^−1 of AA (the concentration used in the in vivo assays). At predetermined times, 1 mL aliquots were collected, and the amount of AA was determined using HPLC. The results were presented as % viable ascorbic acid. The assays were performed in triplicate (n = 3).

Data set [2] concerns zebrafish embryos and larvae. Conditions: after 96 h of exposure.
Protocol: The embryos were kept individually in 24-well polystyrene plates (n = 24 organisms per group), with addition of 2 mL of test solution to each well. The temperature was maintained at 26 ± 0.2 °C and a light/dark photoperiod of 14/10 h was provided. Determinations were made of mortality and morphological abnormalities including changes in heartbeat, presence of coagulation, undetected tail, change in head formation, disintegration of larvae, pericardial edema, yolk sac edema and opacity, and defective development of the somite.
The total length of the larvae (mm) was measured from the mouth to the terminal portion of the tail.
Mortality was defined as the presence of coagulation, lack of heartbeat, failure of somite development, and undeveloped tail. The hatching rate was calculated considering the successful hatching of embryos in relation to the total number of embryos in each replicate. The observed malformations included pericardial edema, tail deformity, yolk sac edema, and spinal curvature.
The malformation rate was determined considering the percentage of malformed larvae in relation to the total number of larvae that hatched during the test. […] The equipment was previously calibrated using a millimeter scale.
Data set [3] can be described thus: Toxicity evaluation using zebrafish (mortality, LC values, hatching, morphology; 3.12-400 mg/L, 96 h). To be noted: zebrafish (Danio rerio), in vivo. On the procedure: (§2) Preliminary tests were performed to determine the lethal concentration (LC50, mg/L). For this experiment, 24-well polystyrene plates were used, with the embryos being individually exposed to 2 mL of the test solution (n = 24 per group). […] The positive control was 4 mg L^−1 of 3,5-dichloroaniline (≥ 98%, Sigma-Aldrich). The plates were examined every 24 h to determine the mortality of the embryos and larvae, using a stereomicroscope (Model SMZ 2 LED, Optika) and Optika View v. 7.1.1.5 software. […] 1.17.04 software.

Data set [4] deals with zebrafish embryos and larvae. The description is as above. On the procedure:
as §2

Data set [5] in a line: AA oxidation kinetics induced by peroxymonosulfate (Oxone). It counts as physicochemical. On the procedure:
as §1

A short description of data set [6]: AA release kinetics, two-compartment system, and mathematical modeling. It counts as physicochemical. How it is done: The profiles of AA release from the nanoparticles were evaluated using a two-compartment system composed of a donor compartment (2 mL) and an acceptor compartment (50 mL), separated by a cellulose membrane (1000 Da exclusion pore size) under slight stirring and room temperature (25 °C). Aliquots (1 mL) were periodically collected from the acceptor compartment, with the volume being replaced with 1 mL of water to maintain a constant volume. The aliquots removed were analyzed by HPLC and the results were converted to percentages of released AA. The assays were performed in triplicate. Zero order, first order, Higuchi and Korsmeyer-Peppas mathematical models were used to elucidate the release mechanism of AA from all formulations.

The subject of another data set is AChE. Conditions: ref Sandahl et al. [76], cited from earlier work.

As a reminder, the LC50 is the concentration that kills 50% of the test population. Read a low LC50 as greater toxicity. Broadly, the mortality is the share of the test organisms that died. As for `O=C1O[C@H]([C@@H](O)CO)C(O)=C1O` [AA, L-ascorbic acid], the “distance traveled, dose dependence” value in the data set with zebrafish larvae (LC10-LC50, 96 h exposure) was “dose-dependent increase in the distance traveled”. Moreover, the “swimming speed, dose dependence” value in the data set on zebrafish larvae (LC10-LC50, 96 h exposure) is given as “dose-dependent increases in speed”. The “distance traveled compared to the control group” value is “significant (p < 0.05) increase in the distance traveled” with zebrafish larvae (LC50, 96 h exposure) and “shorter” in the data set on zebrafish larvae (up to the LC30 concentration). Moreover, the “time to total degradation of AA” value in data set [1] amounted to 120 min; in data set [5] (peroxymonosulfate oxidizing agent), 7 min. In addition, the AA degraded result in data set [1] (first 60 min) was “almost half”. In data set [2] (LC50 concentration), this compound came in with a hatching rate of 16.6%. In data set [2] (LC50 dose), the “malformations of embryos and larvae” value was “edema and opacity of the yolk sac, edema of the pericardium, malformation of the tail, and bent spine”. The same compound yielded an LC50 at 96 h in data set [3] of 331 µg/mL (≈ 1880 µM). The mortality in data set [4] (400 mg/L, 96 h) is given as 75%; in data set [4] (all concentrations tested except 400 mg L^−1, 96 h), “below 30%”. For the same compound, the “malformations compared to NPs_CS_AA at the same concentrations” value in data set [4] (25 and 50 mg L^−1) is recorded as “higher numbers of malformations”. The “hatching rate compared to the control group” value in data set [4] (100 and 200 mg L^−1, after 96 h) was “more pronounced decreases in hatching”; in data set [4] (after 48 h of exposure), “lower”. For the same compound, the LC10 in data set [4] (96 h, probit analysis) was 53.0 µg/mL (≈ 301 µM). This compound also registered an LC20 in data set [4] (96 h, probit analysis) of 148.3 µg/mL (≈ 842 µM). The compound further gave an LC30 in data set [4] (96 h, probit analysis) of 217.1 µg/mL (≈ 1230 µM). Further, the LC40 in data set [4] (96 h, probit analysis) amounted to 275.8 µg/mL (≈ 1570 µM). The “AA concentration after addition of the oxidizing agent” value in data set [5] (first minute, initial 10 μg mL^−1 AA, peroxymonosulfate) is listed as 2.5 ± 0.01 µg/mL. Besides, the “AA released (acceptor compartment)” value is 39 ± 0.2% in data set [6] (after 60 min, 25 °C, water) and 51 ± 0.9% in data set [6] (after 210 min).

With `CCOP(=S)(OCC)Oc1nc(Cl)c(Cl)cc1Cl` [chlorpyrifos], the “relative AChE activity compared to the control” value in the data set with AChE (at 0.6 µg L^−1) is 77.2%. The “exposure concentration with significant decreases in swimming activity” value in the data set with AChE is 0.6 µg/L.
